Data from patent US20240307426A1, “USE OF SGLT-2 INHIBITORS FOR THE PREVENTION AND/OR TREATMENT OF RENAL DISEASES IN NON-HUMAN MAMMALS” (BOEHRINGER INGELHEIM VETMEDICA GMBH, priority 2021, published 2024).

System: cats with chronic kidney disease (CKD)
Assay: Exploratory clinical field trial in cats with CKD (Example 3)
Assay type: in vivo, cat
Set-up: key to IRIS Stage (based on serum creatinine level) / IRIS Stage (based on creatinine level) / IRIS Stage (based on the creatinine level): IRIS CKD stage assigned from serum creatinine (IRIS 2019)
Settings: for Phosphorus: ref 0.8-2.2; for Serum creatinine: ref 0.9-2.3; for Potassium: ref 3.3-5.8; for Hematocrit: ref 28.2-52.7; for UPC: ref <0.33
Protocol: The clinical trial was conducted at three animal clinics. Overall, 9 cats with chronic kidney disease (CKD) were included in the study and treated once daily orally with 1 mg/kg bodyweight velagliflozin for up to 150 days (depending on the time of enrollment).
Diagnosis of CKD was based on two measurements of serum creatinine concentration at least 2 weeks apart from each other (historical value and screening, and value at screening in fasted cats), as recommended by the International Renal Interest Society (IRIS 2019). In order to qualify for enrollment, serum creatinine levels needed to be ≥2.2 mg/dL, but <5.0 mg/dL.
Disease staging throughout the study was performed based on serum creatinine levels in accordance with the IRIS CKD staging (IRIS 2019).
All other cats were treated for >90 days had at least data for two time points under treatment available and were therefore evaluated. Progression of the disease, as well as IRIS staging in this study was based on the most reliable biomarker: serum creatinine.

[1] = case 200-006, Visit 2 (Day 90), 1 mg/kg po once daily
[2] = case 200-006, Visit 3 (Day 121), 1 mg/kg po once daily
[3] = case 200-006, screening visit (before treatment)
[4] = case 200-007, 1 mg/kg po once daily
[5] = case 200-007, 1 mg/kg po once daily, whole study
[6] = case 200-007, Visit 1 (Day 30), 1 mg/kg po once daily
[7] = case 200-007, Visit 2 (Day 90), 1 mg/kg po once daily
[8] = case 200-007, Visit 3 (Day 114), 1 mg/kg po once daily
[9] = case 200-007, screening visit (before treatment)
[10] = case 300-003 (IRIS stage 2), removed early on day 30
[11] = case 300-008, 1 mg/kg po once daily
[12] = case 300-008, 1 mg/kg po once daily, whole study
[13] = case 300-008, Visit 1 (Day 30), 1 mg/kg po once daily
[14] = case 300-008, Visit 2 (Day 90), 1 mg/kg po once daily
[15] = case 300-008, Visit 3 (Day 103), 1 mg/kg po once daily
[16] = case 300-008, screening visit (before treatment)
[17] = case 400-004, 1 mg/kg po once daily
[18] = case 400-004, 1 mg/kg po once daily, whole study
[19] = case 400-004, Visit 1 (Day 30), 1 mg/kg po once daily
[20] = case 400-004, Visit 2 (Day 90), 1 mg/kg po once daily
[21] = case 400-004, Visit 3 (Day 119), 1 mg/kg po once daily
[22] = case 400-004, screening visit (before treatment)

Compound: N#Cc1ccc([C@@H]2O[C@H](CO)[C@@H](O)[C@H](O)[C@H]2O)cc1Cc1ccc(C2CC2)cc1 [velagliflozin, Velagliflozin]
- Systolic blood pressure [1]: 155.3 mmHg
- Phosphorus [1]: 1.3 mmol/L
- Serum creatinine [1]: 2.7 mg/dL
- Potassium [1]: 4.4 mmol/L
- Hematocrit [1]: 37.3%
- UPC [1]: 0.2
- BUN [2]: 42 mg/dL
- IRIS Stage (based on the creatinine level) [2]: 2
- Owner assessment - quality of life [2]: good
- Owner assessment of the appetite [2]: normal
- Owner assessment of the drinking behavior [2]: excessive
- Systolic blood pressure [2]: 140.0 mmHg
- Phosphorus [2]: 2.0 mmol/L
- Serum creatinine [2]: 2.8 mg/dL
- Potassium [2]: 4.3 mmol/L
- Hematocrit [2]: 35.5%
- BUN [3]: 34 mg/dL
- IRIS Stage (based on the creatinine level) [3]: 2
- Owner assessment - quality of life [3]: good
- Owner assessment of the appetite [3]: poor
- Owner assessment of the drinking behavior [3]: excessive
- Systolic blood pressure [3]: 141.3 mmHg
- Phosphorus [3]: 1.3 mmol/L
- Serum creatinine [3]: 2.6 mg/dL
- Potassium [3]: 3.8 mmol/L
- Hematocrit [3]: 37.9%
- UPC [3]: 0.1
- adverse events [4]: three occasions of vomitus, two occasions of inappetence and one occasion of mild anaemia, leukocytopenia
- expected glucosuric effect [4]: confirmed
- Serum creatinine levels (course) [5]: increased mildly
- Serum potassium levels (course) [5]: remained stable within the reference range
- Total urine protein and UPC [5]: mildly increased
- drinking behavior (course) [5]: improved to normal
- quality of life (course) [5]: changed from very good to good
- the cat's condition [5]: stable
- BUN [6]: 40 mg/dL
- IRIS Stage (based on the creatinine level) [6]: 3
- Owner assessment - quality of life [6]: very good
- Owner assessment of the appetite [6]: normal
- Owner assessment of the drinking behavior [6]: normal
- Systolic blood pressure [6]: 122.7 mmHg
- Phosphorus [6]: 1.0 mmol/L
- Serum creatinine [6]: 3.2 mg/dL
- Potassium [6]: 4.0 mmol/L
- Hematocrit [6]: 35.9%
- BUN [7]: 42 mg/dL
- IRIS Stage (based on the creatinine level) [7]: 3
- Owner assessment - quality of life [7]: good
- Owner assessment of the appetite [7]: normal
- Owner assessment of the drinking behavior [7]: normal
- Systolic blood pressure [7]: 130.7 mmHg
- Phosphorus [7]: 1.3 mmol/L
- Serum creatinine [7]: 3.3 mg/dL
- Potassium [7]: 4.4 mmol/L
- Hematocrit [7]: 32.6%
- UPC [7]: 0.2
- BUN [8]: 43 mg/dL
- IRIS Stage (based on the creatinine level) [8]: 3
- Owner assessment - quality of life [8]: good
- Owner assessment of the appetite [8]: normal
- Owner assessment of the drinking behavior [8]: normal
- Systolic blood pressure [8]: 130.7 mmHg
- Phosphorus [8]: 1.3 mmol/L
- Serum creatinine [8]: 3.2 mg/dL
- Potassium [8]: 3.9 mmol/L
- Hematocrit [8]: 28.9%
- BUN [9]: 41 mg/dL
- IRIS Stage (based on the creatinine level) [9]: 3
- Owner assessment - quality of life [9]: very good
- Owner assessment of the appetite [9]: normal
- Owner assessment of the drinking behavior [9]: excessive
- Systolic blood pressure [9]: 139.3 mmHg
- Phosphorus [9]: 1.2 mmol/L
- Serum creatinine [9]: 2.9 mg/dL
- Potassium [9]: 4.4 mmol/L
- Hematocrit [9]: 37.6%
- UPC [9]: 0.1
- evaluated clinical signs [10]: no worsening of the evaluated clinical signs
- laboratory parameters [10]: stable laboratory parameters
- reported events [10]: Tooth pain, anorexia and feline odontoclastic-resorptive lesions (FORL) were reported
- adverse events [11]: No adverse event was reported
- expected glucosuric effect [11]: confirmed
- Drinking behavior according to owner's assessment (course) [12]: improved from excessive to normal
- condition (clinical signs and biochemical parameters) [12]: stabilization of the condition
- course of serum creatinine concentration [12]: remained stable
- serum potassium and phosphate levels [12]: remained in the reference range
- total urine protein and UPC ratio [12]: remained within the reference range
- BUN [13]: 65 mg/dL
- IRIS Stage (based on creatinine level) [13]: 2
- Owner assessment - quality of life [13]: good
- Owner assessment of the appetite [13]: poor
- Owner assessment of the drinking behavior [13]: normal
- Systolic blood pressure [13]: 150.0 mmHg
- Phosphorus [13]: 1.4 mmol/L
- Serum creatinine [13]: 1.9 mg/dL
- Potassium [13]: 4.9 mmol/L
- Hematocrit [13]: 28.8%
- BUN [14]: 64 mg/dL
- IRIS Stage (based on creatinine level) [14]: 2
- Owner assessment - quality of life [14]: good
- Owner assessment of the appetite [14]: normal
- Systolic blood pressure [14]: 150.0 mmHg
- Phosphorus [14]: 1.5 mmol/L
- Serum creatinine [14]: 2.4 mg/dL
- Potassium [14]: 4.4 mmol/L
- Hematocrit [14]: 32.4%
- UPC [14]: 0.2
- BUN [15]: 54 mg/dL
- IRIS Stage (based on creatinine level) [15]: 2
- Owner assessment - quality of life [15]: good
- Owner assessment of the appetite [15]: normal
- Owner assessment of the drinking behavior [15]: normal
- Systolic blood pressure [15]: 148.7 mmHg
- Phosphorus [15]: 1.6 mmol/L
- Serum creatinine [15]: 2.6 mg/dL
- Potassium [15]: 4.4 mmol/L
- Hematocrit [15]: 28.2%
- UPC [15]: 0.3
- BUN [16]: 36 mg/dL
- IRIS Stage (based on creatinine level) [16]: 2
- Owner assessment - quality of life [16]: good
- Owner assessment of the appetite [16]: normal
- Owner assessment of the drinking behavior [16]: excessive
- Systolic blood pressure [16]: 148.0 mmHg
- Phosphorus [16]: 1.3 mmol/L
- Serum creatinine [16]: 2.4 mg/dL
- Potassium [16]: 4.9 mmol/L
- Hematocrit [16]: 26.7%
- UPC [16]: 0.2
- adverse events [17]: One non-serious adverse event was reported (owner reported diarrhea)
- expected glucosuric effect [17]: confirmed
- Drinking behavior according to the owner (course) [18]: improved from excessive to normal
- UPC ratio (course) [18]: remained in the normal range
- condition (clinical signs and biochemical parameters) [18]: improvement of the condition
- course of BUN concentration [18]: decrease
- course of serum creatinine concentration [18]: decrease
- serum potassium and phosphate levels [18]: remained within the reference range
- total urine protein [18]: reduced
- BUN [19]: 20.0 mg/dL
- IRIS Stage (based on serum creatinine level) [19]: 3
- Owner assessment - quality of life [19]: good
- Owner assessment of the appetite [19]: normal
- Owner assessment of the drinking behavior [19]: normal
- Systolic blood pressure [19]: 142.7 mmHg
- Phosphorus [19]: 1.3 mmol/L
- Serum creatinine [19]: 4.0 mg/dL
- Potassium [19]: 3.9 mmol/L
- Hematocrit [19]: 41.0%
- BUN [20]: 19.3 mg/dL
- IRIS Stage (based on serum creatinine level) [20]: 3
- Owner assessment - quality of life [20]: good
- Owner assessment of the appetite [20]: poor
- Owner assessment of the drinking behavior [20]: normal
- Systolic blood pressure [20]: 157.3 mmHg
- Phosphorus [20]: 1.3 mmol/L
- Serum creatinine [20]: 3.2 mg/dL
- Potassium [20]: 3.8 mmol/L
- Hematocrit [20]: 45.0%
- UPC [20]: 0.1
- BUN [21]: 24.3 mg/dL
- IRIS Stage (based on serum creatinine level) [21]: 3
- Owner assessment - quality of life [21]: good
- Owner assessment of the appetite [21]: normal
- Owner assessment of the drinking behavior [21]: normal
- Systolic blood pressure [21]: 149.3 mmHg
- Phosphorus [21]: 1.5 mmol/L
- Serum creatinine [21]: 2.9 mg/dL
- Potassium [21]: 4.0 mmol/L
- Hematocrit [21]: 45.0%
- BUN [22]: 20.2 mg/dL
- IRIS Stage (based on serum creatinine level) [22]: 3
- Owner assessment - quality of life [22]: good
- Owner assessment of the appetite [22]: normal
- Owner assessment of the drinking behavior [22]: excessive
- Systolic blood pressure [22]: 151.3 mmHg
- Phosphorus [22]: 1.4 mmol/L
- Serum creatinine [22]: 4.2 mg/dL
- Potassium [22]: 4.3 mmol/L
- Hematocrit [22]: 44.0%
- UPC [22]: 0.1
- Clinical signs related to CKD (evaluated cats, 1 mg/kg po once daily): either remained good/stable or improved in the majority of cats
- risk factors for progression of the disease (e.g. UPC, blood pressure, potassium, phosphorus) (feline CKD patients, 1 mg/kg orally once daily): remained stable and within the reference range
- IRIS staging (one of the 3 cats with decreased serum creatinine (stage 3->stage 2)): improved by one category
- complications of CKD (oral 1 mg/kg bodyweight once daily, evaluated cats): no complications of CKD observed
- laboratory parameters related to CKD (serum creatinine) and clinical signs (the other 4 of seven evaluated cats): stable condition
